Assay results published in PMC11233931, “Remodeling tumor‐associated macrophage for anti‐cancer effects by rational design of irreversible inhibition of mitogen‐activated protein kinase‐activated protein kinase 2” (MedComm, 2024).

Columns and labels:
Experiment in all cases: Eurofins kinase selectivity profile against 380 other human recombinant kinases (Table S2)
Assay type in all cases: biochemical
[1] = target: T1, 380 human recombinant protein kinases (Homo sapiens, UniProt O00238); settings: ALK6(h), read-out: Inhibition rate
T1 construct: purchased Eurofins (Celle Lévescault)
T1 sequence (O00238 14-502): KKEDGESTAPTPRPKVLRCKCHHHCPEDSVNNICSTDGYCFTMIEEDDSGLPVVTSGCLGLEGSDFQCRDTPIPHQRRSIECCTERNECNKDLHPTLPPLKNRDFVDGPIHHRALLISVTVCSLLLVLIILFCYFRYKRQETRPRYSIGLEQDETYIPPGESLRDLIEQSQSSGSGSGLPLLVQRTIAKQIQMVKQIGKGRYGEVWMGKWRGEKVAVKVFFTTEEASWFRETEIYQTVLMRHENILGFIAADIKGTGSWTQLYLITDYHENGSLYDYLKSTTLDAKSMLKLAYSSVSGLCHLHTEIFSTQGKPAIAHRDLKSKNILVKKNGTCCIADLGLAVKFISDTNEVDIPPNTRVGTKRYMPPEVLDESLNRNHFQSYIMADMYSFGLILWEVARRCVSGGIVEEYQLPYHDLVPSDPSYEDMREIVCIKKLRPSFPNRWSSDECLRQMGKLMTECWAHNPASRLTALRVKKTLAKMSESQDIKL
How it was run: (§1)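 The inhibitor was sent to a contract lab and screened at various concentrations against 380 human recombinant protein kinases. This served as a counter-screen for MK2 specificity.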

[2] = target: T2, 380 human recombinant protein kinases (Homo sapiens, UniProt O94804); settings: LOK(h), read-out: Inhibition rate
T2 construct: purchased Eurofins (Celle Lévescault)
T2 sequence (O94804 whole entry): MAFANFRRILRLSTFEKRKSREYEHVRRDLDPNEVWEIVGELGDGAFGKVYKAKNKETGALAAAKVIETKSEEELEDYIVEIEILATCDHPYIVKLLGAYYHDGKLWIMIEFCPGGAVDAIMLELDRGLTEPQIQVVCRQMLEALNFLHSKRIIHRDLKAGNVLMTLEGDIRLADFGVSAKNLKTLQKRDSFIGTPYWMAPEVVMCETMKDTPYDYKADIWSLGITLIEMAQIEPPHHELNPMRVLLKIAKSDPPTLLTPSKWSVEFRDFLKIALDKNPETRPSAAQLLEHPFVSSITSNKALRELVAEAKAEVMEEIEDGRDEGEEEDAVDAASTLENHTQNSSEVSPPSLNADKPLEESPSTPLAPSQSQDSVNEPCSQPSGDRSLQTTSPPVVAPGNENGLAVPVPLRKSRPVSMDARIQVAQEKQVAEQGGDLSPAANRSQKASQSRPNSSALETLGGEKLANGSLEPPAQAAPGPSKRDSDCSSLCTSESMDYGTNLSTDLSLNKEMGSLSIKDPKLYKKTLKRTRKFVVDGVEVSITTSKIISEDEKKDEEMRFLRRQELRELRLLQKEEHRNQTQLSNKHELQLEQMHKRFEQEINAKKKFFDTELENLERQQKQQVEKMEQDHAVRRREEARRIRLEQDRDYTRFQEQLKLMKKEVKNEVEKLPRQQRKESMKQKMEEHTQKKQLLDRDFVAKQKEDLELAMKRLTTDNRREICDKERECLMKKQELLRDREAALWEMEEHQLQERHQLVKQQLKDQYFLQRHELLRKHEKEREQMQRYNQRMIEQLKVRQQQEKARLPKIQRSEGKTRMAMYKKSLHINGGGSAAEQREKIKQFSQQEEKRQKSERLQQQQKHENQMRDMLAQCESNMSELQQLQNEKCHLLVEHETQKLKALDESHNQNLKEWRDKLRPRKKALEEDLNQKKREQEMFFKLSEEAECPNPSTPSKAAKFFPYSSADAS
How it was run: as §1

[3] = target: T3, 380 human recombinant protein kinases (Homo sapiens, UniProt P06241); settings: Fyn(h), read-out: Inhibition rate
T3 construct: purchased Eurofins (Celle Lévescault)
T3 sequence (P06241 whole entry): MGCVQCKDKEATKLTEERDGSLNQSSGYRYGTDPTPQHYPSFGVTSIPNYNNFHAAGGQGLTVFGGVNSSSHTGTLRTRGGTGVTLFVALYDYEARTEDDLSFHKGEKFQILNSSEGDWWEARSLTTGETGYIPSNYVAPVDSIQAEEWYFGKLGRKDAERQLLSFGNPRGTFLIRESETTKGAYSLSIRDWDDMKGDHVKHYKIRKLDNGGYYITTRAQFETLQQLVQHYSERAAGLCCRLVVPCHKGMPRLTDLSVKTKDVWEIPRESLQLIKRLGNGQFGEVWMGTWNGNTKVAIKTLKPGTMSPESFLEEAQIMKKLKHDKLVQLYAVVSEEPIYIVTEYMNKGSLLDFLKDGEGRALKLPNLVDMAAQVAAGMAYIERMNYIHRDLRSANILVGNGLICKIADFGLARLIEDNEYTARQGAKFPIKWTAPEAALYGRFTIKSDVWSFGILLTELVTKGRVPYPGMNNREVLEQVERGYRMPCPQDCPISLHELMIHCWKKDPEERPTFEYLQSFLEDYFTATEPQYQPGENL
How it was run: as §1

[4] = target: T4, 380 human recombinant protein kinases (Homo sapiens, UniProt P36896); settings: ALK4(h), read-out: Inhibition rate
T4 construct: purchased Eurofins (Celle Lévescault)
T4 sequence (P36896 24-505): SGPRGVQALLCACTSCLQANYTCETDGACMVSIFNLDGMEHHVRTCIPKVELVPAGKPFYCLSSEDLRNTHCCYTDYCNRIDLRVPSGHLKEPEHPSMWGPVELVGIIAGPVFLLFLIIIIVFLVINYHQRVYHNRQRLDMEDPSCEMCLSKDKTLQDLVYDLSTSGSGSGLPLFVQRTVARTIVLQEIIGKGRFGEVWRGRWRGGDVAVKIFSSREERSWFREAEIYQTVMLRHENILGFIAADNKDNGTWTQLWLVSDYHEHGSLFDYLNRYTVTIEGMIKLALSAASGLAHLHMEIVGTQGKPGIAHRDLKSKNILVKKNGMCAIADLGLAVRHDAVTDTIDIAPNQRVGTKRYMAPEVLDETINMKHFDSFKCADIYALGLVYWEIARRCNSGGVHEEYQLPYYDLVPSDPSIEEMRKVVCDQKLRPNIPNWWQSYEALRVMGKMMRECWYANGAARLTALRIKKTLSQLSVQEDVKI
How it was run: as §1

[5] = target: T5, 380 human recombinant protein kinases (Homo sapiens, UniProt P54762); settings: EphB1(h), read-out: Inhibition rate
T5 construct: purchased Eurofins (Celle Lévescault)
T5 sequence (P54762 18-984): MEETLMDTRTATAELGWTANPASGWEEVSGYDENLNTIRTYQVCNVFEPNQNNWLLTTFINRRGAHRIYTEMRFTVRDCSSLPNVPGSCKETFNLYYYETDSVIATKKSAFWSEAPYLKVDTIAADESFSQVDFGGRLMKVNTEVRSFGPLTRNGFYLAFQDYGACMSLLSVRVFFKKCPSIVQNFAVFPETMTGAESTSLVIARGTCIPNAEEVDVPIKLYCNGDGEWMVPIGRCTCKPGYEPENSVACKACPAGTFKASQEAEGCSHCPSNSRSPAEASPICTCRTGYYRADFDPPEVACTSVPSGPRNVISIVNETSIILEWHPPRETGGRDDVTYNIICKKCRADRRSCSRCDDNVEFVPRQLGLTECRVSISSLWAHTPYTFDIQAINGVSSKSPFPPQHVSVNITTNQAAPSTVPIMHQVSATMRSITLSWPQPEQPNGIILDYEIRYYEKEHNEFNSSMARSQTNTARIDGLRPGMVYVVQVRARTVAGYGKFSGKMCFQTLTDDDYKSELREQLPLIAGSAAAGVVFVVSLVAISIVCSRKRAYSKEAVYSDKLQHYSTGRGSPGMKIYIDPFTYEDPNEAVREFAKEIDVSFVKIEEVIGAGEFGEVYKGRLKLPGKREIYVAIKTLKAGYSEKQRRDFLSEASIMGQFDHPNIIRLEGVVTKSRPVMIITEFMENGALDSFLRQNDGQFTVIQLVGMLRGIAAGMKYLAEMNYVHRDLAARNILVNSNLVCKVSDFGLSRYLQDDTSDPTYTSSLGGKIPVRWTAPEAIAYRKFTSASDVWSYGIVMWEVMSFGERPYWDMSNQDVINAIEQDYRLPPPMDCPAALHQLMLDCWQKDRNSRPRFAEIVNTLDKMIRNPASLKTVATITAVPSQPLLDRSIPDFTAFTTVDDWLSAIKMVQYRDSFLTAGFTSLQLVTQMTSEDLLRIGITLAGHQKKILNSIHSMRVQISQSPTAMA
How it was run: as §1

[6] = target: T6, 380 human recombinant protein kinases (Homo sapiens, UniProt Q13555); settings: CaMKIIγ(h), read-out: Inhibition rate
T6 construct: purchased Eurofins (Celle Lévescault)
T6 sequence (Q13555 whole entry): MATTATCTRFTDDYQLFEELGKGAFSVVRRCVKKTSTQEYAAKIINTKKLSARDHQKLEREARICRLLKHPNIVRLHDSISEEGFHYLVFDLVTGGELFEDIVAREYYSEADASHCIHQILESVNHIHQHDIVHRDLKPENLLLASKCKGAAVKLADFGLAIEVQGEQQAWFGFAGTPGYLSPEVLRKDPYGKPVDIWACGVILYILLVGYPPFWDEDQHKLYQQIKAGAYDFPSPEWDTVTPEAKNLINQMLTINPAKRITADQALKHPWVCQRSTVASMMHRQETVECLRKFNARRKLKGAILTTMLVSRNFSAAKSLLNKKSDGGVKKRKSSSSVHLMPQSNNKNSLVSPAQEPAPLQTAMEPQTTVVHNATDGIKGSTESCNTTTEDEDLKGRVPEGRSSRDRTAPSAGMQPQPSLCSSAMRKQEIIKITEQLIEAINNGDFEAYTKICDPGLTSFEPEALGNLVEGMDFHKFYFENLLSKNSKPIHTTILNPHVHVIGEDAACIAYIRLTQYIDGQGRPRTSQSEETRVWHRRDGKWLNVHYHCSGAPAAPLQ
How it was run: as §1

[7] = target: T7, 380 human recombinant protein kinases (Homo sapiens, UniProt Q16566); settings: CaMKIV(h), read-out: Inhibition rate
T7 construct: purchased Eurofins (Celle Lévescault)
T7 sequence (Q16566 1-473): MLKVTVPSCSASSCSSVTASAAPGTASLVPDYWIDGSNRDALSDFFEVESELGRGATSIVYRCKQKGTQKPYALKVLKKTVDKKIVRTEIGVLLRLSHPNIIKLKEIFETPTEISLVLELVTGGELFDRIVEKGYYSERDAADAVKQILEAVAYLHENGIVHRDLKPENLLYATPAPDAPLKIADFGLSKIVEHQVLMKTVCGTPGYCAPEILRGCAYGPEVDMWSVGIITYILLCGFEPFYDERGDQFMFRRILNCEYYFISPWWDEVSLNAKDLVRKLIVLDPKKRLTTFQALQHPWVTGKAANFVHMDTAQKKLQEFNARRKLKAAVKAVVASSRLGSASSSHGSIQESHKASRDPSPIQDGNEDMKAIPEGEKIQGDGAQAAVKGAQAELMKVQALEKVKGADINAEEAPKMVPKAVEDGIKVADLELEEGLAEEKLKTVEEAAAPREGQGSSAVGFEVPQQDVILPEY
How it was run: as §1

[8] = target: T8, 380 human recombinant protein kinases (Homo sapiens, UniProt Q8N568); settings: DCAMKL2(h), read-out: Inhibition rate
T8 construct: purchased Eurofins (Celle Lévescault)
T8 sequence (Q8N568 whole entry): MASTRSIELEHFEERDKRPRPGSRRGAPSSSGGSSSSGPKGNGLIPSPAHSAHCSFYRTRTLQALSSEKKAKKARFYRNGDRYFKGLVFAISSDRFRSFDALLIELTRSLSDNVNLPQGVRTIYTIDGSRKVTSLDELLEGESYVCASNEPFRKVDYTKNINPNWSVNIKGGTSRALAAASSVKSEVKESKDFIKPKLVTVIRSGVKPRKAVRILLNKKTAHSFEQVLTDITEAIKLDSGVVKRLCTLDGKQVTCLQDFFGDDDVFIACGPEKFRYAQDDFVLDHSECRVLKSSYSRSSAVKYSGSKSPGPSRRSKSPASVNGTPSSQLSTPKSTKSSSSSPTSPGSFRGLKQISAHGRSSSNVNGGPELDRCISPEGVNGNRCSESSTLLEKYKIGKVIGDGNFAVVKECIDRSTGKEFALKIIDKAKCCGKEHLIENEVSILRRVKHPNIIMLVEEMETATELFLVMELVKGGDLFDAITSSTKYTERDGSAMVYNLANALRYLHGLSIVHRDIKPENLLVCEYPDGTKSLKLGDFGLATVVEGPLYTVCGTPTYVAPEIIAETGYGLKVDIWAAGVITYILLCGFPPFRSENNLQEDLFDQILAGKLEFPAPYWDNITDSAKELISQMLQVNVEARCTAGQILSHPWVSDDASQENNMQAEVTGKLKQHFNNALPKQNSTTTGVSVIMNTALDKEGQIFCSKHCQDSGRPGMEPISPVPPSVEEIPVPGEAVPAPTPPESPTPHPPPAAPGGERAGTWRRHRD
How it was run: as §1

## C=CC(=O)Nc1cc(-c2cc(-c3cc4c([nH]3)CCNC4=O)ccn2)ccc1OC(F)(F)F [compound 11]
[1]; 10 nM
  inhibition at 0.01 µM: -13%
[1]; 100 nM
  inhibition at 0.1 µM: 4%
[1]; 1000 nM
  inhibition at 1 µM: 6%
[2]; 10 nM
  inhibition at 0.01 µM: -2%
[2]; 100 nM
  inhibition at 0.1 µM: 6%
[2]; 1000 nM
  inhibition at 1 µM: 54%
[3]; 10 nM
  inhibition at 0.01 µM: 0%
[3]; 100 nM
  inhibition at 0.1 µM: 0%
[3]; 1000 nM
  inhibition at 1 µM: 3%
[4]; 10 nM
  inhibition at 0.01 µM: 26%
[4]; 100 nM
  inhibition at 0.1 µM: 16%
[4]; 1000 nM
  inhibition at 1 µM: 6%
[5]; 10 nM
  inhibition at 0.01 µM: -17%
[5]; 100 nM
  inhibition at 0.1 µM: -12%
[5]; 1000 nM
  inhibition at 1 µM: 2%
[6]; 10 nM
  inhibition at 0.01 µM: -5%
[6]; 100 nM
  inhibition at 0.1 µM: 6%
[6]; 1000 nM
  inhibition at 1 µM: 18%
[7]; 10 nM
  inhibition at 0.01 µM: 9%
[7]; 100 nM
  inhibition at 0.1 µM: 8%
[7]; 1000 nM
  inhibition at 1 µM: 6%
[8]; 10 nM
  inhibition at 0.01 µM: 4%
[8]; 100 nM
  inhibition at 0.1 µM: 4%
[8]; 1000 nM
  inhibition at 1 µM: 4%
